Data taken from ChEMBL document CHEMBL3045834 (Med Chem Res, 2004).

Assays:
Rattus norvegicus [1] = organism: Rattus norvegicus; test: Selectivity ratio for antagonist activity at alpha1D adrenergic receptor in Rattus norvegicus (rat) aorta to antagonist activity at alpha1A adrenergic receptor in vas deferens
Rattus norvegicus [2] = organism: Rattus norvegicus; test: Selectivity ratio for antagonist activity at alpha1B adrenergic receptor in Rattus norvegicus (rat) spleen to antagonist activity at alpha1D adrenergic receptor in aorta; type: tissue-based
Rattus norvegicus [3] = organism: Rattus norvegicus; test: Selectivity ratio for antagonist activity at alpha1B adrenergic receptor in Rattus norvegicus (rat) spleen to antagonist activity at alpha1A adrenergic receptor in rat vas deferens; type: tissue-based
[4] = molecular target: T1, Alpha-1D adrenergic receptor (Rattus norvegicus, UniProt P23944); test: Competitive antagonist activity at alpha1D adrenergic receptor in Rattus norvegicus (rat) aorta assessed as inhibition of (-)-noradrenaline-induced contraction; conditions: read-out: pA2 (converted)
T1 sequence (P23944 whole entry): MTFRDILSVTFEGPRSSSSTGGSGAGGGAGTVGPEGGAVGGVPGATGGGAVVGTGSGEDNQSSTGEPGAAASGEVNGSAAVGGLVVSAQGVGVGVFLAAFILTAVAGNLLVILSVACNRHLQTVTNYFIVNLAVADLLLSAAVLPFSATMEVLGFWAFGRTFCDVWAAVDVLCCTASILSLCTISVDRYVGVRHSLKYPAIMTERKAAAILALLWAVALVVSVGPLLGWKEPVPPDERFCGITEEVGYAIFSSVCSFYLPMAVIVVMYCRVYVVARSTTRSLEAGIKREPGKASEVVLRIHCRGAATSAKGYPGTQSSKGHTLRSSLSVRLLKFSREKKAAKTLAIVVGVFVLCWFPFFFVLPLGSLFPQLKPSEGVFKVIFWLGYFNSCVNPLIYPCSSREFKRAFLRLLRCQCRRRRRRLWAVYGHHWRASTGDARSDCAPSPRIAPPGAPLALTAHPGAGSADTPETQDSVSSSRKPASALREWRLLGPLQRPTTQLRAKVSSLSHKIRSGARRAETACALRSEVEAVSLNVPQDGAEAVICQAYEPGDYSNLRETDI

[5] = molecular target: T2, Alpha-1B adrenergic receptor (Rattus norvegicus) (UniProt P15823); test: Noncompetitive antagonist activity at alpha1B adrenergic receptor in Rattus norvegicus (rat) spleen assessed as inhibition of (-)-phenylephrine-induced contraction
T2 sequence (whole entry): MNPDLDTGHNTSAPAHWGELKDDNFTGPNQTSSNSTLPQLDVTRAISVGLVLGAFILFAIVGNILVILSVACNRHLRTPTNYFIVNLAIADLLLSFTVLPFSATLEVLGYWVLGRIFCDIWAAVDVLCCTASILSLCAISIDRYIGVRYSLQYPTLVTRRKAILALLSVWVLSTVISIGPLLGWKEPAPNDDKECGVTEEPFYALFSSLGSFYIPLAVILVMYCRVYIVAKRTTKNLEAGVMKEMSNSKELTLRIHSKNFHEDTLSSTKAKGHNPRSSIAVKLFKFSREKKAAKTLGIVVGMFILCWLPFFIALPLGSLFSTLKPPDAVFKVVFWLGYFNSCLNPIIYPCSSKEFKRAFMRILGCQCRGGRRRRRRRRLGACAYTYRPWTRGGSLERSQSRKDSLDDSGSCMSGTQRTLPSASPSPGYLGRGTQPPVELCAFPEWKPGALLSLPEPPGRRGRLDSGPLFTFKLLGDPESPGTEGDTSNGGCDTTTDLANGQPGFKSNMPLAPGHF

[6] = molecular target: T3, Alpha-1A adrenergic receptor (Rattus norvegicus) (UniProt P43140); test: Noncompetitive antagonist activity at alpha1A adrenergic receptor in Rattus norvegicus (rat) vas deferens assessed as inhibition of (-)-noradrenaline-induced contraction
T3 sequence (whole entry): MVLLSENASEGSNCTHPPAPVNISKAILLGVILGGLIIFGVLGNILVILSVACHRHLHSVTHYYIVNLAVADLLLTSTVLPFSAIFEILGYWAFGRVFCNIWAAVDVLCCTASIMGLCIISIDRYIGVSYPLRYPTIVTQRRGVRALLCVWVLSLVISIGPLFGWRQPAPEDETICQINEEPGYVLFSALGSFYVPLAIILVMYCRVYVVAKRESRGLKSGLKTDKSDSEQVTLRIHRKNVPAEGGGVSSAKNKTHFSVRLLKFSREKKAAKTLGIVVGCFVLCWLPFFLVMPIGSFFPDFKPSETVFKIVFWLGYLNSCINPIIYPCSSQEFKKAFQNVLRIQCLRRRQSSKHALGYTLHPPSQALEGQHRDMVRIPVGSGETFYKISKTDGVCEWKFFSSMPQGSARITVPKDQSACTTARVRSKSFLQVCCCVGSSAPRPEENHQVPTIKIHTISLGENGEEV

[7] = molecular target: T4, Alpha-1D adrenergic receptor (Homo sapiens, UniProt P25100); test: Displacement of [3H]prazosin from Homo sapiens (human) alpha1D adrenergic receptor
T4 sequence (P25100 whole entry): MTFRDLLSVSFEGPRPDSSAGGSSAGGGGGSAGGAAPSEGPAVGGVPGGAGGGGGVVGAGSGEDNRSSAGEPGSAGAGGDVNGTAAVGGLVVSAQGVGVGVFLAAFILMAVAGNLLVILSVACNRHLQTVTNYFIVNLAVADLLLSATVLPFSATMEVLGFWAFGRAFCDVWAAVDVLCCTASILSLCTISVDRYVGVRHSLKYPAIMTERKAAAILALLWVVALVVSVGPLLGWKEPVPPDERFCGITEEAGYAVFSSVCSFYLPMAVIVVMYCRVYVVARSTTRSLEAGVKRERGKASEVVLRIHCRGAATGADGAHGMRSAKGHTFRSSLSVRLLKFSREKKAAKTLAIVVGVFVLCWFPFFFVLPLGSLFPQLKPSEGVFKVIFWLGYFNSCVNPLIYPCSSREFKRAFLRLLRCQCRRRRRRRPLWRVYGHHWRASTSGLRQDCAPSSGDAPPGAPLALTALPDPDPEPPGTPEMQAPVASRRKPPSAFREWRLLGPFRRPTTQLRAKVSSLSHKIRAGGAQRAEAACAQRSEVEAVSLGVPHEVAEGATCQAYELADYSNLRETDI

[8] = molecular target: T5, Alpha-1B adrenergic receptor (Homo sapiens, UniProt P35368); test: Displacement of [3H]prazosin from Homo sapiens (human) alpha1B adrenergic receptor
T5 sequence (P35368 whole entry): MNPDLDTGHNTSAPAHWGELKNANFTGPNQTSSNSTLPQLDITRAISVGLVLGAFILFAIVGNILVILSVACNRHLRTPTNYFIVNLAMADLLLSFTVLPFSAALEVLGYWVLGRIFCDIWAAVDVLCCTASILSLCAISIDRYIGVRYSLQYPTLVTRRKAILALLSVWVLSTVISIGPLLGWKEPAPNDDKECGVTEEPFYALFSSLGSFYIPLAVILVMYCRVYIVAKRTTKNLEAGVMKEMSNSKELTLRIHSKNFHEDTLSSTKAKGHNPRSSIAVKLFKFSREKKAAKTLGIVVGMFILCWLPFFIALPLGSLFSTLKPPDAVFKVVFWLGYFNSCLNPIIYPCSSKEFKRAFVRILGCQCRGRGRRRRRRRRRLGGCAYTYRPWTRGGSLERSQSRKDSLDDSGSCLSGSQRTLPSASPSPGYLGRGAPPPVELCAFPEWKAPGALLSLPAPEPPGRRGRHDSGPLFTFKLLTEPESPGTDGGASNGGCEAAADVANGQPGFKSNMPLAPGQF

[9] = molecular target: T6, Alpha-1A adrenergic receptor (Homo sapiens, UniProt P35348); test: Displacement of [3H]prazosin from Homo sapiens (human) alpha1A adrenergic receptor
T6 sequence (P35348 whole entry): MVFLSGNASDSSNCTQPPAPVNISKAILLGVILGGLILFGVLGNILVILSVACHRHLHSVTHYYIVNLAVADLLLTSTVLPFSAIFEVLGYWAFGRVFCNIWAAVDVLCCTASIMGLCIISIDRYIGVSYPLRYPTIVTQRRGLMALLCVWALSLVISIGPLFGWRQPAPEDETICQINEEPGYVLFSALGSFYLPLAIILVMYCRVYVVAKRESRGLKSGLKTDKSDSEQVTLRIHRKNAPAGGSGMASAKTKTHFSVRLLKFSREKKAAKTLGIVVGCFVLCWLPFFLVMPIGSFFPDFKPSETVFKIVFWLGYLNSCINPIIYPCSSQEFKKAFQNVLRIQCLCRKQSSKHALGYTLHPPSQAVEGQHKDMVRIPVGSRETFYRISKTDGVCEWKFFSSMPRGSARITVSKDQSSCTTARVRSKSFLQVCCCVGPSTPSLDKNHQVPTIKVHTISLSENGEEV

[10] = molecular target: T7, Alpha-1A adrenergic receptor (Rattus norvegicus, UniProt P43140); test: Antagonist activity at alpha1A adrenoreceptor in Rattus norvegicus (rat) small mesenteric artery; conditions: read-out: pA2 (converted)
T7 sequence (P43140 whole entry): T3 sequence (whole entry)

[11] = molecular target: T5, Alpha-1B adrenergic receptor; test: Binding affinity to alpha1B adrenoreceptor (unknown origin) by radioligand binding assay
[12] = molecular target: T7, Alpha-1A adrenergic receptor; test: Competitive antagonist activity at alpha1A adrenergic receptor in Rattus norvegicus (rat) vas deferens assessed as inhibition of (-)-noradrenaline-induced contraction; conditions: read-out: pA2 (converted)

Selectivity ratio (Rattus norvegicus [1])	Selectivity ratio (Rattus norvegicus [3])	Kb [4] [nM]	pKb [5]	pKb [6]	Ki [7] [nM]	Ki [8] [nM]	Ki [9] [nM]	Kb [10] [nM]	Ki [11] [nM]	Kb [12] [nM]	Structure (SMILES)	Selectivity ratio (Rattus norvegicus [2])
2.3	407	91.2	9.28	6.67	4.79	0.871	23.4	–	–	–	COc1cc2nc(N3CCN(C(=O)c4ccc(C)o4)[C@H]4CCCC[C@@H]43)nc(N)c2cc1OC	174
0.5	199	58.9	9.83	7.53	1.55	0.309	3.47	–	–	–	COc1cc2nc(N3CCN(C(=O)c4ccc(Br)o4)[C@H]4CCCC[C@@H]43)nc(N)c2cc1OC	398
–	–	–	–	–	–	–	–	16.6	0.692	–	COc1cc2nc(N3CCN(C(=O)c4ccco4)[C@H]4CCCC[C@H]43)nc(N)c2cc1OC [(+)-CYCLAZOSIN]	–
1.6	724	89.1	9.71	–	3.63	0.871	27.5	–	–	141	COc1ccc(C(=O)N2CCN(c3nc(N)c4cc(OC)c(OC)cc4n3)[C@H]3CCCC[C@@H]32)o1	457
0.2	302	214	9.85	7.37	7.41	1.38	25.7	–	–	–	COc1cc2nc(N3CCN(C(=O)c4ccc(C(C)=O)o4)[C@H]4CCCC[C@@H]43)nc(N)c2cc1OC	1510
